One data set concerns Anas platyrhynchos. Particulars: oral; for LD50: mortality.
In the next data set the test system is Apis mellifera. Particulars: acute, mortality.
In another data set the test system is Canidae. The settings on record: oral, Dog Other, body weight.
Another data set relates to Colinus virginianus. Particulars: oral; for LD50: mortality.
Another data set has as its system Coturnix japonica. The settings on record: reproduction developmental.
For another data set, the system named is Daphnia magna. Particulars: chronic/long-term; duration: 21 days; reproduction.
The subject of another data set is Mus musculus. Particulars: acute; mortality.
A further data set concerns Tagia sp. Particulars: acute; duration: 14 days; mortality.
A further data set relates to Typhlodromus pyri. The data set can be described thus: LR50; higher = less toxic. Particulars: not reported; mortality.
Where [1] appears, read: short-term, duration: 5 days, feed.

The structures appear in SMILES notation. In brackets after ≈: the same amount, converted by molar mass. Bounds are passed on as bounds.

In general, NOAEL refers to the highest tested level that showed no adverse finding. On to `COc1cc(OC)nc(NC(=O)NS(=O)(=O)c2ncccc2C(=O)N(C)C)n1` [Nicosulfuron], for which the NOEL with Anas platyrhynchos (acute, unspecified) is 2000 mg/kg-day; with Anas platyrhynchos (setting [1]), 911 mg/kg-day; in the data set with Colinus virginianus (acute), 2000 mg/kg-day; in the data set with Colinus virginianus (short-term, duration: 5 days, diet), 1600 mg/kg-day. Moreover, the LD50 in the data set on Anas platyrhynchos (acute, unspecified) is greater than 2000 mg/kg-day; with Anas platyrhynchos (setting [1]), greater than 911 mg/kg-day; in the data set with Apis mellifera (dermal) it was 76 µg/piece; in the data set with Colinus virginianus (acute, duration: 5 days, diet) it was greater than 1600 mg/kg-day; in the data set with Colinus virginianus (acute), greater than 2000 mg/kg-day; with Mus musculus it was greater than 5000 mg/kg-day. The compound also showed an LD50 with Rattus norvegicus (acute, mortality) greater than 5000 mg/kg-day. The LC50 with Apis mellifera (oral, feed) was greater than 1000 µg/piece; in the data set with Oncorhynchus mykiss (acute, duration: 96 hours, mortality) it was 65.7 µg/mL (≈ 160 µM); in the data set on Tagia sp. it was greater than 1000 mg/kg. Moreover, the NOAEL is 200 mg/kg-day with Canidae (chronic, duration: 1 years); 200 mg/kg-day in the data set with Canidae (short-term, duration: 28 days); 200 mg/kg-day with Canidae (subchronic, duration: 90 days); 199 mg/kg-day in the data set with Rattus norvegicus (chronic, duration: 2 years, hematological); 3860 mg/kg-day with Rattus norvegicus (reproduction developmental, M); 4400 mg/kg-day with Rattus norvegicus (reproduction developmental, mortality). Moreover, the NOEC in the data set on Coturnix japonica was found to be 171 mg/kg-day; with Daphnia magna it was 5.2 mg/L; in the data set on Oncorhynchus mykiss (chronic/long-term, duration: 28 days, growth) it was 10 mg/L. Besides, the LR50 in the data set with Typhlodromus pyri is 60 g/ha.

Values taken from EPA's ToxValDB 9.5 (doi:10.2903/j.efsa.2008.120r).
